Patent US20240415914A1, “Water Dispersible Cannabinoid Compositions” (priority 2021, published 2024)
Like-named read-outs stand apart in the source and are kept apart here.

Legend:
[1] = Stability of cannabinoid and Vitamin E components of Beverage 2 (AB Red) stored at 8° C. and 21-25° C., LCMSMS over 570 days
Description: The LCMSMS was calibrated for 0-50 ng/ml cannabinoids with the same resin material used in the preparation of the concentrates. At each time period, 100 μml of beverage was diluted with 10 ml of methanol and injected into the LCMSMS for analysis.

[2] = type: physicochemical; details: stored at room temperature (21-25° C.)
Description: At each time period, 0.05 g of powder was dissolved in 10 ml-15 of ethanol, diluted to fall within the analytical range, and injected into the LCMSMS for analysis.

Cc1c(C)c2c(c(C)c1OC(=O)CCC(=O)O)CC[C@@](C)(CCC[C@H](C)CCC[C@H](C)CCCC(C)C)O2 [α-Tocopheryl succinate]
1.87 mg/g powder: Stability in Powder Concentrate (content by LCMSMS) ([2]; day 10) | Stability in Powder Concentrate (content by LCMSMS) ([2]; day 12) | Stability in Powder Concentrate (content by LCMSMS) ([2]; day 15) | Stability in Powder Concentrate (content by LCMSMS) ([2]; day 29) | Stability in Powder Concentrate (content by LCMSMS) ([2]; day 270) | Stability in Powder Concentrate (content by LCMSMS) ([2]; day 390)
12.0 µg/mL: Stability of Vitamin Es in AB Red ([1]; 8° C., 23 days) | Stability of Vitamin Es in AB Red ([1]; 8° C., 25 days) | Stability of Vitamin Es in AB Red ([1]; 21-25° C., 2 days) | Stability of Vitamin Es in AB Red ([1]; 21-25° C., 8 days) | Stability of Vitamin Es in AB Red ([1]; 21-25° C., 10 days) | Stability of Vitamin Es in AB Red ([1]; 21-25° C., 11 days)
11.9 µg/mL: Stability of Vitamin Es in AB Red ([1]; 8° C., 18 days) | Stability of Vitamin Es in AB Red ([1]; 8° C., 22 days) | Stability of Vitamin Es in AB Red ([1]; 21-25° C., 3 days) | Stability of Vitamin Es in AB Red ([1]; 21-25° C., 5 days) | Stability of Vitamin Es in AB Red ([1]; 21-25° C., 19 days) | Stability of Vitamin Es in AB Red ([1]; 21-25° C., 25 days)
11.6 µg/mL: Stability of Vitamin Es in AB Red ([1]; 8° C., 29 days) | Stability of Vitamin Es in AB Red ([1]; 8° C., 240 days) | Stability of Vitamin Es in AB Red ([1]; 21-25° C., 15 days) | Stability of Vitamin Es in AB Red ([1]; 21-25° C., 16 days) | Stability of Vitamin Es in AB Red ([1]; 21-25° C., 22 days) | Stability of Vitamin Es in AB Red ([1]; 21-25° C., 90 days) | Stability of Vitamin Es in AB Red ([1]; 21-25° C., 210 days) | Stability of Vitamin Es in AB Red ([1]; 21-25° C., 240 days)
1.79 mg/g powder: Stability in Powder Concentrate (content by LCMSMS) ([2]; day 360)
12.5 µg/mL: Stability of Vitamin Es in AB Red ([1]; 8° C., 0 days) | Stability of Vitamin Es in AB Red ([1]; 8° C., 15 days) | Stability of Vitamin Es in AB Red ([1]; 8° C., 26 days) | Stability of Vitamin Es in AB Red ([1]; 21-25° C., 0 days) | Stability of Vitamin Es in AB Red ([1]; 21-25° C., 1 days)
10.4 µg/mL: Stability of Vitamin Es in AB Red ([1]; 21-25° C., 480 days)
1.82 mg/g powder: Stability in Powder Concentrate (content by LCMSMS) ([2]; day 0) | Stability in Powder Concentrate (content by LCMSMS) ([2]; day 420)
10.8 µg/mL: Stability of Vitamin Es in AB Red ([1]; 8° C., 510 days) | Stability of Vitamin Es in AB Red ([1]; 21-25° C., 390 days)
11.4 µg/mL: Stability of Vitamin Es in AB Red ([1]; 8° C., 60 days) | Stability of Vitamin Es in AB Red ([1]; 8° C., 180 days) | Stability of Vitamin Es in AB Red ([1]; 8° C., 210 days) | Stability of Vitamin Es in AB Red ([1]; 21-25° C., 150 days) | Stability of Vitamin Es in AB Red ([1]; 21-25° C., 300 days) | Stability of Vitamin Es in AB Red ([1]; 21-25° C., 330 days)
11.2 µg/mL: Stability of Vitamin Es in AB Red ([1]; 8° C., 300 days) | Stability of Vitamin Es in AB Red ([1]; 8° C., 390 days) | Stability of Vitamin Es in AB Red ([1]; 8° C., 450 days) | Stability of Vitamin Es in AB Red ([1]; 21-25° C., 450 days)
1.85 mg/g powder: Stability in Powder Concentrate (content by LCMSMS) ([2]; day 19)
1.88 mg/g powder: Stability in Powder Concentrate (content by LCMSMS) ([2]; day 17)
12.4 µg/mL: Stability of Vitamin Es in AB Red ([1]; 8° C., 17 days) | Stability of Vitamin Es in AB Red ([1]; 8° C., 30 days) | Stability of Vitamin Es in AB Red ([1]; 21-25° C., 12 days) | Stability of Vitamin Es in AB Red ([1]; 21-25° C., 24 days) | Stability of Vitamin Es in AB Red ([1]; 21-25° C., 29 days)
11.5 µg/mL: Stability of Vitamin Es in AB Red ([1]; 8° C., 5 days) | Stability of Vitamin Es in AB Red ([1]; 8° C., 16 days) | Stability of Vitamin Es in AB Red ([1]; 8° C., 90 days) | Stability of Vitamin Es in AB Red ([1]; 8° C., 150 days) | Stability of Vitamin Es in AB Red ([1]; 8° C., 270 days) | Stability of Vitamin Es in AB Red ([1]; 21-25° C., 120 days)
1.89 mg/g powder: Stability in Powder Concentrate (content by LCMSMS) ([2]; day 9) | Stability in Powder Concentrate (content by LCMSMS) ([2]; day 11) | Stability in Powder Concentrate (content by LCMSMS) ([2]; day 150)
1.80 mg/g powder: Stability in Powder Concentrate (content by LCMSMS) ([2]; day 23) | Stability in Powder Concentrate (content by LCMSMS) ([2]; day 30) | Stability in Powder Concentrate (content by LCMSMS) ([2]; day 210) | Stability in Powder Concentrate (content by LCMSMS) ([2]; day 450) | Stability in Powder Concentrate (content by LCMSMS) ([2]; day 540)
12.3 µg/mL: Stability of Vitamin Es in AB Red ([1]; 21-25° C., 180 days)
10.6 µg/mL: Stability of Vitamin Es in AB Red ([1]; 8° C., 570 days) | Stability of Vitamin Es in AB Red ([1]; 21-25° C., 510 days) | Stability of Vitamin Es in AB Red ([1]; 21-25° C., 570 days)
1.76 mg/g powder: Stability in Powder Concentrate (content by LCMSMS) ([2]; day 26) | Stability in Powder Concentrate (content by LCMSMS) ([2]; day 480) | Stability in Powder Concentrate (content by LCMSMS) ([2]; day 510)
12.6 µg/mL: Stability of Vitamin Es in AB Red ([1]; 8° C., 8 days) | Stability of Vitamin Es in AB Red ([1]; 8° C., 10 days) | Stability of Vitamin Es in AB Red ([1]; 21-25° C., 17 days)
1.83 mg/g powder: Stability in Powder Concentrate (content by LCMSMS) ([2]; day 5) | Stability in Powder Concentrate (content by LCMSMS) ([2]; day 16) | Stability in Powder Concentrate (content by LCMSMS) ([2]; day 90) | Stability in Powder Concentrate (content by LCMSMS) ([2]; day 120) | Stability in Powder Concentrate (content by LCMSMS) ([2]; day 330)
11.8 µg/mL: Stability of Vitamin Es in AB Red ([1]; 8° C., 9 days)
1.81 mg/g powder: Stability in Powder Concentrate (content by LCMSMS) ([2]; day 1) | Stability in Powder Concentrate (content by LCMSMS) ([2]; day 2) | Stability in Powder Concentrate (content by LCMSMS) ([2]; day 3)
1.84 mg/g powder: Stability in Powder Concentrate (content by LCMSMS) ([2]; day 240) | Stability in Powder Concentrate (content by LCMSMS) ([2]; day 300)
11.7 µg/mL: Stability of Vitamin Es in AB Red ([1]; 8° C., 1 days) | Stability of Vitamin Es in AB Red ([1]; 8° C., 2 days) | Stability of Vitamin Es in AB Red ([1]; 8° C., 3 days) | Stability of Vitamin Es in AB Red ([1]; 8° C., 19 days) | Stability of Vitamin Es in AB Red ([1]; 8° C., 330 days) | Stability of Vitamin Es in AB Red ([1]; 21-25° C., 9 days) | Stability of Vitamin Es in AB Red ([1]; 21-25° C., 60 days)
12.1 µg/mL: Stability of Vitamin Es in AB Red ([1]; 8° C., 11 days) | Stability of Vitamin Es in AB Red ([1]; 21-25° C., 18 days) | Stability of Vitamin Es in AB Red ([1]; 21-25° C., 26 days) | Stability of Vitamin Es in AB Red ([1]; 21-25° C., 30 days)
10.9 µg/mL: Stability of Vitamin Es in AB Red ([1]; 8° C., 480 days) | Stability of Vitamin Es in AB Red ([1]; 8° C., 540 days)
12.7 µg/mL: Stability of Vitamin Es in AB Red ([1]; 8° C., 12 days) | Stability of Vitamin Es in AB Red ([1]; 21-25° C., 23 days)
1.78 mg/g powder: Stability in Powder Concentrate (content by LCMSMS) ([2]; day 22)
11.0 µg/mL: Stability of Vitamin Es in AB Red ([1]; 8° C., 420 days) | Stability of Vitamin Es in AB Red ([1]; 21-25° C., 270 days) | Stability of Vitamin Es in AB Red ([1]; 21-25° C., 420 days)
10.3 µg/mL: Stability of Vitamin Es in AB Red ([1]; 21-25° C., 540 days)
1.77 mg/g powder: Stability in Powder Concentrate (content by LCMSMS) ([2]; day 18) | Stability in Powder Concentrate (content by LCMSMS) ([2]; day 60) | Stability in Powder Concentrate (content by LCMSMS) ([2]; day 180) | Stability in Powder Concentrate (content by LCMSMS) ([2]; day 570)
1.90 mg/g powder: Stability in Powder Concentrate (content by LCMSMS) ([2]; day 8) | Stability in Powder Concentrate (content by LCMSMS) ([2]; day 24) | Stability in Powder Concentrate (content by LCMSMS) ([2]; day 25)
12.2 µg/mL: Stability of Vitamin Es in AB Red ([1]; 8° C., 24 days) | Stability of Vitamin Es in AB Red ([1]; 8° C., 120 days)
